Source: patent US6727227B1, “Tetrapetide revealing geroprotective effect, pharmacological substance on its basis, and the method of its application” (Obschestvo S Ogranichennoi Otvetstven-Nostiju “Klinika …, priority 2002, dated 2004)
Where two headings read alike, the source gives them in different places. Marks after values point to notes of the source that are not given here. Residues, ends and D or L forms follow the SMILES beside them.

Tests used:
white outbred rats = assay: Subacute toxicity, 90 days; format: in vivo; conditions: intramuscularly daily for 90 days, 1 μg/kg, 0.3 mg/kg, 3 mg/kg
Protocol: Experimental animals were exposed daily to a single administration of the drug intramuscularly for 90 days in doses 1 μg/kg, 0.3 mg/kg, 3 mg/kg in 0.5 ml of sodium chloride solution. Animals of the control group were administered with the same amount of sodium chloride.
Within the whole period of study the animals were under daily observation. Behaviour of the animals, their rations and water consumption, the state of hair integument and mucous membranes were registered. The animals were weighed weekly. Prior to and on the 30th, 60th, and 90th days of the drug administration the morphological composition and properties of the peripheral blood were examined. Upon the experiment completion biochemical and coagulologic indices of blood were investigated.

[1] = tested on: Drosophila melanogaster of HEM strain; assay: Luminol-dependent tissue chemoluminescence in flies of HEM strain; format: in vivo; conditions: 0.00001% of culture medium weight
Text: L-Ala-L-Glu-L-Asp-Gly tetrapeptide (SEQ ID NO: 1) was applied in Drosophila melanogaster larvae of the 2nd age of HEM strain selected for a high ageing rate (20). HEM strain is characterised by the unique dynamics of embryonic mortality, which consists in an increased frequency of early embryonic lethal outcomes from 65% on the 1st day of egg-laying up to 95% on the 4th day, in a reduced average life span (29 days), and in a raised intensity of lipid peroxide oxidation.
L-Ala-L-Glu-L-Asp-Gly tetrapeptide (SEQ ID NO: 1) was added in proportion 0.00001% of the culture medium weight, which was an extremely low dose. The doses described in literature on the influence of various substances on Drosophila melanogaster usually ranged from 0.001 to 0.01%.
Biochemical parameters were studied on 14-day old flies. Among them the activity of catalase activity and the intensity of tissue chemoluminescence were analysed (21, 22, 23). Catalase is the basic enzyme of anti-oxidation defence. […] Luminol-dependent chemoluminescence, induced by hydrogen peroxide, reflects the stage of active oxygen forms in tissues. Thus, a decrease in the chemoluminescence intensity indicates an increase in the organism ability to resist oxidative stress.

catalase = assay: Catalase activity in homogenates of 14 days old flies of LA strain; format: in vivo, Drosophila melanogaster of LA strain
Protocol: The impact produced by L-Ala-L-Glu-L-Asp-Gly tetrapeptide (SEQ ID NO: 1) on catalase activity, the content of the products of lipid peroxide oxidation (LPO), life span, and the ageing rate were studied in Drosophila melanogaster of LA strain.
L-Ala-L-Glu-L-Asp-Gly tetrapeptide (SEQ ID NO: 1) was applied in the larvae of the 3rd age in dose 0.00001% of the culture medium weight, which constituted approximately 0.015 mg/100 ml. Catalase activity was estimated by generally accepted methods in the homogenates of adult 14 days old flies. The experiment was carried out with a subsequent repetition.
Regression and dispersal analyses served as the basic technique of statistic processing. The authenticity of differences was confirmed by the method of minimal relevant diversity.

[2] = tested on: Drosophila melanogaster of EA strain; assay: Chemoluminescence intensity in homogenates of 7-day old flies of EA strain; format: in vivo
Protocol: Drosophila melanogaster of EA strain served as a model for studying the influence of L-Ala-L-Glu-L-Asp-Gly tetrapeptide (SEQ ID NO: 1) on catalase activity, tissue chemoluminescence, and life span.
L-Ala-L-Glu-L-Asp-Gly tetrapeptide (SEQ ID NO: 1) was applied in the larvae of the 3rd age in dose 0.00001% of the culture medium weight, which constituted approximately 0.015 mg/100 ml. Catalase activity and the intensity of chemoluminescence were estimated in the homogenates of adult 7-day old flies by generally accepted methods. The experiment was conducted with a subsequent 5 repetition.
Regression and dispersal analyses served as the basic technique of statistic processing.

[3] = tested on: Drosophila melanogaster of “wild” Canton-S strain; conditions: for ALS ± statistic errors / Alterations in ALS: Canton-S; for Alterations in ALS: versus control
Protocol: In this research Drosophila melanogaster of “wild” Canton-S strain were employed.
L-Ala-L-Glu-L-Asp-Gly tetrapeptide (SEQ ID NO: 1) in the solution form was introduced into the culture medium provided for the growth of insects, which was cooled down to 50-60° C., with subsequent careful stirring and depositing it into test tubes.
To make the conditions of both the control and experimental population development identical, an amount of sodium chloride equal to that used for L-Ala-L-Glu-L-Asp-Gly tetrapeptide (SEQ ID NO: 1) solution was introduced into the culture medium for the control. The concentration of all the substances employed was calculated by the ratio to the mass of the culture medium provided for reproduction.
4-day old female flies underwent a randomly selected mating with males for 72 hours, one couple per each test tube, after which parental couples were removed from the test tubes. To form every new generation the posterity of 50 to 80 couples was used.
Life span (LS) was investigated on laboratory populations, each of them consisting of 90 individuals of each sex. Immediately after hatching the flies were randomly placed in test tubes, 10 individuals in each. Substitution of the culture medium was carried out 3 times a week.
Average values (ALS) and standard errors calculated by the traditional method were applied as life span distribution parameters. Average values were compared to each other with the application of Student t-criterion.
For experimental study 6 concentrations of L-Ala-L-Glu-L-Asp-Gly tetrapeptide (SEQ ID NO: 1) were selected: 0.01×, 0.1×, 1×, 5×, 7.5×, and 12.5×10^−6% of the culture medium weight.

[4] = tested on: blood anti-oxidation defence indices; assay: Blood anti-oxidation defence indices in patients with age-related pathology; format: in vivo; conditions: 10 μg intramuscularly daily for 10 days
Protocol: The studied pharmacological substance was administered to 14 patients (34 to 69 years old) with age-related pathology (hypertension disease, ischemic heart disease, chronic gastritis, non-insulin-dependent diabetes mellitus) and reduction of the anti-oxidation defence indices in blood.
The substance containing L-Ala-L-Glu-L-Asp-Gly tetrapeptide (SEQ ID NO: 1) was administered intramuscularly in the form of an injection solution in a single daily dose of 10 μg per injection for 10 days.

[5] = females, concentration 0.01 ×10^−6%
[6] = females, concentration 0.1 ×10^−6%
[7] = females, concentration 1.0 ×10^−6%
[8] = females, concentration 5.0 ×10^−6%
[9] = females, concentration 7.5 ×10^−6%
[10] = females, concentration 12.5 ×10^−6%
[11] = males, concentration 0.01 ×10^−6%
[12] = males, concentration 0.1 ×10^−6%
[13] = males, concentration 1.0 ×10^−6%
[14] = males, concentration 5.0 ×10^−6%
[15] = males, concentration 7.5 ×10^−6%
[16] = males, concentration 12.5 ×10^−6%

C[C@H](N)C(=O)N[C@@H](CCC(=O)O)C(=O)N[C@@H](CC(=O)O)C(=O)NCC(=O)O [L-Ala-L-Glu-L-Asp-Gly tetrapeptide, L-alanyl-L-glutamyl-L-aspartyl-glycine] (H-AEDG-OH) was tested, and the “Side effects, subacute toxicity” value (white outbred rats) was “absence of side effects”, the Chemoluminescence ([1]; females) was 7.9 ± 0.91 conv. unit/mg of protein and the Chemoluminescence ([1]; males) was 2.03 ± 0.182 conv. unit/mg of protein. The “Specific activity of catalase” value (catalase; females) was 42.57 μmole H2O2/mg of protein per min, the “Specific activity of catalase” value (catalase; males) was 57.44* μmole H2O2/mg of protein per min and the Chemoluminescence intensity ([2]; females) was 4.61 ± 0.395 conv. unit/mg of protein per p. For the same compound, the Chemoluminescence intensity ([2]; males) was 4.93 ± 0.109 conv. unit/mg of protein per p, the “ALS ± statistic errors” value [3, 5] was 35.41 ± 1.07 and the “Alterations in ALS” value [3, 5] was 13.4%. For the same compound, the “Alterations in ALS” value ([3]; females, concentration 0.01 ×10^−6%, listed as L-Ala-L-Glu-L-Asp-Gly) was “+13.4%”, the “ALS ± statistic errors” value [3, 6] was 35.41 ± 1.07 and the “Alterations in ALS” value [3, 6] was 11.8%. For the same compound, the “Alterations in ALS” value ([3]; females, concentration 0.1 ×10^−6%, listed as L-Ala-L-Glu-L-Asp-Gly) was “+11.8%”, the “ALS ± statistic errors” value [3, 7] was 35.76 ± 1.35 and the “Alterations in ALS” value [3, 7] was −1.1%. For the same compound, the “ALS ± statistic errors” value [3, 8] was 38.04 ± 1.56, the “Alterations in ALS” value [3, 8] was “+3.2%” and the “ALS ± statistic errors” value [3, 9] was 31.16 ± 1.21. For the same compound, the “Alterations in ALS” value [3, 9] was −7.6%, the “ALS ± statistic errors” value [3, 10] was 37.06 ± 1.12 and the “Alterations in ALS” value [3, 10] was “+5.6%”. For the same compound, the “Duration of stage development (lack of genotoxic effect)” value ([3]; in vivo) was “did not alter the duration of their stage development”, the “ALS ± statistic errors” value [3, 11] was 36.47 ± 1.09 and the “Alterations in ALS” value [3, 11] was “+12.0%”. For the same compound, the “ALS ± statistic errors” value [3, 12] was 34.85 ± 1.18, the “Alterations in ALS” value [3, 12] was “+10.8%” and the “ALS ± statistic errors” value [3, 13] was 36.77 ± 1.44. For the same compound, the “Alterations in ALS” value [3, 13] was “+13.3%”, the “ALS ± statistic errors” value [3, 14] was 37.74 ± 1.16 and the “Alterations in ALS” value [3, 14] was “+11.3%”. For the same compound, the “ALS ± statistic errors” value [3, 15] was 39.98 ± 0.99, the “Alterations in ALS” value [3, 15] was −0.03% and the “ALS ± statistic errors” value [3, 16] was 33.96 ± 1.01. For the same compound, the “Alterations in ALS” value [3, 16] was −9.0%, the “Activity of superoxide dismutase, After treatment” value ([4]; before treatment 0.26) was 0.61* conv. unit/mg of protein and the “Products of spontaneous lipid peroxide oxidation: Schiff bases, After treatment” value ([4]; before treatment 4.6 ± 0.3) was 2.9 ± 0.2 μM/l. For the same compound, the “Products of spontaneous lipid peroxide oxidation: conjugated hydroperoxides, After treatment” value ([4]; before treatment 7.3 ± 0.6) was 2.5 ± 0.2 μM/l.
